How the values were obtained:
DNA = assay: Binding affinity to Bos taurus (calf) thymus DNA assessed as hypochromicity at 15 uM by spectrophotmetry analysis; type: nucleic-acid assay
MCF7 = assay: Cytotoxicity against Homo sapiens (human) MCF7 cells after 48 hr by trypan blue assay; type: functional, cell-based; settings: MCF7, 48 h
HL-60 = assay: Cytotoxicity against Homo sapiens (human) HL60 cells after 48 hr by trypan blue assay; type: functional, cell-based; settings: HL-60, 48 h

Activity (DNA) | Compound | IC50 (MCF7) | IC50 (HL-60)
50% | Cc1cc(C)c2c(=O)c3ccccc3n(CCCCN3CCCCC3)c2c1 | 6.67 µM | 1.41 µM
48% | Cc1cc(C)c2c(=O)c3ccccc3n(CCCN3CCN(C)CC3)c2c1 | 28.5 µM | 15.4 µM
 | O=P1(N(CCCl)CCCl)NCCCO1 (stereo unspecified) [CYCLOPHOSPHAMIDE ANHYDROUS] | 0.16 µM | 
 | Cc1cc(C)c2c(=O)c3ccccc3[nH]c2c1 | 78.9 µM | 20 µM
 | Cc1cc(C)c2c(=O)c3ccccc3n(CCCN3CCCC3)c2c1 | 19.7 µM | 14.6 µM
29% | Cc1cc(C)c2c(=O)c3ccccc3n(CCCCN3CCCC3)c2c1 | 4.56 µM | 14.1 µM
52% | Cc1cc(C)c2c(=O)c3ccccc3n(CCCN3CCN(CCO)CC3)c2c1 | 7.87 µM | 10.9 µM
 | Cc1cc(C)c2c(=O)c3ccccc3n(CCCN3CCCCC3)c2c1 | 34.6 µM | 14.1 µM
52% | CCN(CC)CCCCn1c2ccccc2c(=O)c2c(C)cc(C)cc21 | 7.98 µM | 0.45 µM
35% | Cc1cc(C)c2c(=O)c3ccccc3n(CCCCN3CCOCC3)c2c1 | 8.45 µM | 0.51 µM
 | Cc1cc(C)c2c(=O)c3ccccc3n(CCCCl)c2c1 | 54.4 µM | 16.4 µM
 | Cc1cc(C)c2c(=O)c3ccccc3n(CCCCCl)c2c1 | 34.4 µM | 14.2 µM
40% | CCN(CC)CCCn1c2ccccc2c(=O)c2c(C)cc(C)cc21 | 11.2 µM | 1.65 µM
51% | Cc1cc(C)c2c(=O)c3ccccc3n(CCCCN3CCN(C)CC3)c2c1 | 8.96 µM | 1.74 µM
13% | Cc1cc(C)c2c(=O)c3ccccc3n(CCCN3CCOCC3)c2c1 | 43.9 µM | 13.7 µM
53% | Cc1cc(C)c2c(=O)c3ccccc3n(CCCCN3CCN(CCO)CC3)c2c1 | 4 µM | 11 µM

From ChEMBL document CHEMBL3045043, “Synthesis, chemical characterization of novel 1,3-dimethyl acridones as cytotoxic agents, and their DNA-binding studies” (Med Chem Res, 2010)
